Laboratory results taken from article PMC8148554, “Characterization and Regulation of the Acetolactate Synthase Genes Involved in Acetoin Biosynthesis in Acetobacter pasteurianus” (Foods, 2021).

Molecular target: T1, AlsS2 (Acetobacter pasteurianus, UniProt A0A401X088)
T1 construct: gene NBRC3278_0356; full length, gene 1695 bp (564 residues with stop codon in the gene); pET-22b(+) NdeI/XhoI, E. coli BL21(DE3), His tag (C-terminal by cloning, no stop in primer); about 59 kDa
T1 sequence (A0A401X088 1-564): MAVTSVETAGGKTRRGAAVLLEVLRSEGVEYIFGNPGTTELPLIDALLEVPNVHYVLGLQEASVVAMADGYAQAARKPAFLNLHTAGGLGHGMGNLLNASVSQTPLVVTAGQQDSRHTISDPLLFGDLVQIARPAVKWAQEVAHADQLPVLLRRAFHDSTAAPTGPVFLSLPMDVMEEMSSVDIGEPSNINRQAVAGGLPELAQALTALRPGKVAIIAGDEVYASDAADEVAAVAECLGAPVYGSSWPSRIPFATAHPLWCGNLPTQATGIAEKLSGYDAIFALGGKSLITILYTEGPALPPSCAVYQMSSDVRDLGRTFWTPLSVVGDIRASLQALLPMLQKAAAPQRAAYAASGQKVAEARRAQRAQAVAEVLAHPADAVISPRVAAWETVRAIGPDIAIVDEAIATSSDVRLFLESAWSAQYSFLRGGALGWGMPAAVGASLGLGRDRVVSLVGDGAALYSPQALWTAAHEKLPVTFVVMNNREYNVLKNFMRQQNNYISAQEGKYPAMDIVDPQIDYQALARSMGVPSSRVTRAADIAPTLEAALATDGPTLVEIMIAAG
Experiment: GC detection of benzaldehyde formed
Format: biochemical
Settings: 10 mM benzoylformate, 0.5 mM MgCl2, 1 mM TPP, 100 mM sodium phosphate pH 7.0, 37 °C, 10 h

## O=C(O)C(=O)c1ccccc1 [benzoylformate]
  GC detection of benzaldehyde formed: Benzaldehyde was detected in the reaction mixture
